Measured values from PMC5514153, “Targeting PTPRZ inhibits stem cell-like properties and tumorigenicity in glioblastoma cells” (Scientific Reports, 2017).

Tests used:
[1] = not told; cited from earlier work
[2] = system: PTPRZ and PTPRG V-to-F substitution mutants; assay: Sensitivity of V-to-F mutants to competitive inhibitors; assay type: biochemical, human; details: SCB4380 10 µM, vanadate 200 µM; on average
Description: For determination of IC50 values, Lineweaver-Burk plot, and inhibitor sensitivity assays, recombinant PTP proteins were preincubated with a dilution series of the compound in assay buffer (100 mM acetate, 50 mM Tris, and 50 mM Bis-Tris, pH 6.5 containing 100 μg/ml BSA, 5 mM DTT, and 0.01% Brij-35) for 1 h, and the enzyme-inhibitor mixture was added to an equal volume of 40 μM DiFMUP (6,8-difluoro-4-methylumbiliferyl phosphate, #D6567, Thermo Fisher Scientific) solution to initiate the reaction. The hydrolysis of DiFMUP was continuously monitored as an increase in fluorescence at 455 nm (excitation at 358 nm) for ~100 s using a spectrofluorometer (FI-4500, Hitachi) at room temperature. The slope of the fluorescence signal was defined as catalytic activity. IC50 values were calculated by the conventional linear interpolation method. We examined preincubation effect, reversibility, and time dependence of PTP inhibition by NAZ2329 as described in the figure legends.
Le ge nds to Supple me ntary Figure s
Supplementary Figure S1. Aberrant expressions of core transcription factors in Ptprz-knockdown glioblastoma cells. (A) Western using antibodies against SOX2, OLIG2, POU3F2, and SALL2. […] SALL2 proteins were not detected in C6 or U251 cells. […]
positions corresponding to Val-1911 of PTPRZ1 are colored in blue and red, respectively. […] Data were analyzed as […]

hPTPRZ1 (D1) = biological target: T1, hPTPRZ1 (D1) (Homo sapiens, UniProt P23471); assay: In vitro PTPase assay (DiFMUP), PTPRZ1 D1 domain; assay type: biochemical; details: first PTP domain fragment
T1 construct: human PTPRZ1-D1 (amino acid residues, 1,698-2,000)

[3] = biological target: T2, human PTPRZ1 (whole intracellular region, D1+D2) (Homo sapiens, UniProt P23471); assay: In vitro PTPase assay (DiFMUP), PTPRZ1 whole intracellular region; assay type: biochemical
T2 construct: Recombinant proteins corresponding to the entire intracellular regions (ICRs) of PTPRZ1, PTPRA, and PTPRM; made in house; host or cells: baculovirus-silkworm expression system
Description: Figure 4 NAZ2329, an allosteric inhibitor of R5 RPTP subfamily members. (A) Structure of NAZ2329. (B) Effect of preincubation of NAZ2329 on its inhibitory activity against PTPRZ. Recombinant human PTPRZ1 enzyme (the whole intracellular region) was premixed with NAZ2329 for the indicated times and followed by addition of a fluorogenic DiFMUP (non-specific PTP substrate, 6,8-difluoro-4-methylumbiliferyl phosphate) to measure PTP inhibitory activity. (C) Time dependence. The PTPRZ1 enzyme was added to the inhibitor–substrate mixture, and the inhibitory activity was determined at each time point relative to the vehicle control. (D) Reversibility of inhibition. PTPRZ1 enzymes were preincubated with NAZ2329 at the indicated concentrations for 30 min. The mixture was then 20-fold diluted, and recovered PTP activity was expressed as the relative activity compared with the vehicle-treated enzyme. (E) Lineweaver-Burk plot analysis. PTPRZ1 enzymes were preincubated with NAZ2329 for 60 min, and the PTP activity was measured using DiFMUP. (F) Concentration-inhibition curves of NAZ2329 for representative PTP members, including human PTPRZ and PTPRG (another R5 RPTP subfamily member), human PTPRS (R2A subfamily), human PTPRM (R2B subfamily), mouse PTPRB (R3 subfamily), human PTPRA (R4 subfamily), human PTPN1 (non-transmembrane PTP, NT1 subfamily), and human PTPN6 (NT2 subfamily), were generated. Assays were performed using DiFMUP. IC50 values obtained are shown in the inset. Data represent the averages of two or three separate experiments. TEXT PRINTED IN THE PICTURE: (F) NAZ2329: IC50 (μM): hPTPRZ1 7.5; IC50 (μM): hPTPRG 4.8; IC50 (μM): hPTPRA 35.7; IC50 (μM): hPTPRM 56.7; IC50 (μM): hPTPRS 23.7; IC50 (μM): mPTPRB 35.4; IC50 (μM): hPTPN6 15.2; IC50 (μM): hPTPN1 14.5
Recombinant proteins corresponding to the entire intracellular regions (ICRs) of PTPRZ1, PTPRA, and PTPRM were expressed using a baculovirus-silkworm expression system, and purified as described. The ICRs of PTPRG, PTPRS, and PTPRB and the catalytic domains of PTPN1 and PTPN6 were expressed as glutathione-S-transferase (GST) fusion proteins from each pGEX plasmid in Escherichia coli strain BL21 (ref. [6]). GST fusion proteins were purified by glutathione affinity chromatography as described. Chondroitinase ABC (chABC) was purchased from Sigma-Aldrich (catalog #C3667). Anti-PTPRZ-S, rabbit polyclonal antibodies against the extracellular region of PTPRZ was described previously (ref. [44]). The following are the specificities and sources of the commercially available antibodies used in the present study: Anti-RPTPβ (a monoclonal antibody against the intracellular domain of PTPRZ1 receptors, #610179, BD Biosciences), anti-SOX2 (#ab97959, Abcam), anti-POU3F2 (#12137, Cell Signaling), anti-OLIG2 (#AB9610, Millipore), anti-SALL2 (#12679–1-AP, Proteintech Group), anti-GAPDH (#ab9482, Abcam) anti-phosphotyrosine (PY20; #ab16389, Abcam), and anti-pY118-paxillin (#2541, Cell Signaling), mouse anti-paxillin antibody (#610569, BD Bioscience), anti-MBP (#sc-13914, Santa Cruz Biotechnology), and anti-NG2 proteoglycan (#AB5320, Millipore). […]

C6 xenograft = assay: C6 subcutaneous xenograft nude mouse model; assay type: in vivo; details: nude mice, i.p. twice per week; NAZ2329 45 µmol (22.5 mg)/kg, TMZ 50 mg/kg; vehicle 17 days
Description: Figure 10 Antitumor effects of NAZ2329 on the C6 mouse xenograft model. (A) Nude mice were subcutaneously implanted with C6 cells (5 × 10^6 cells), and tumor size was monitored until the criteria were met (>150 mm^3). At this time, mice were randomly divided into 4 treatment groups. DMSO as the vehicle control (n = 7), NAZ2329 (45 µmol (22.5 mg)/kg body weight, n = 9), temozolomide (TMZ, 50 mg/kg, n = 9), and the combination of NAZ2329 (45 µmol/kg) with TMZ (50 mg/kg) (n = 9) were administered intraperitoneally twice per week until the humane endpoint (>3,000 mm^3 tumor size or 40 days after the treatment). Tumor growth in each animal and the number of days required to reach a tumor volume of 3,000 mm^3 are shown in the graph. Five mice were sacrificed due to tumor necrosis (shown by gray symbols in the graph), and two mice unexpectedly died suddenly during the observation period (black symbols in the graph).
Parental or Ptprz-knockdown C6 cells (5 × 10^6 cells) suspended in a volume of 100 µl were subcutaneously injected into the left hind limbs of BALB/c-nu/nu mice (females, 4 weeks old mice were purchased from Japanese Charles River Co. Ltd.). Tumor growth was measured with calipers and calculated by the formula: volume = length × width × width × 0.5, as previously described. The drug treatment initiated when the tumor size reached 150 mm^3. […]

T2 sequence (P23471 1663-2315 limits assumed): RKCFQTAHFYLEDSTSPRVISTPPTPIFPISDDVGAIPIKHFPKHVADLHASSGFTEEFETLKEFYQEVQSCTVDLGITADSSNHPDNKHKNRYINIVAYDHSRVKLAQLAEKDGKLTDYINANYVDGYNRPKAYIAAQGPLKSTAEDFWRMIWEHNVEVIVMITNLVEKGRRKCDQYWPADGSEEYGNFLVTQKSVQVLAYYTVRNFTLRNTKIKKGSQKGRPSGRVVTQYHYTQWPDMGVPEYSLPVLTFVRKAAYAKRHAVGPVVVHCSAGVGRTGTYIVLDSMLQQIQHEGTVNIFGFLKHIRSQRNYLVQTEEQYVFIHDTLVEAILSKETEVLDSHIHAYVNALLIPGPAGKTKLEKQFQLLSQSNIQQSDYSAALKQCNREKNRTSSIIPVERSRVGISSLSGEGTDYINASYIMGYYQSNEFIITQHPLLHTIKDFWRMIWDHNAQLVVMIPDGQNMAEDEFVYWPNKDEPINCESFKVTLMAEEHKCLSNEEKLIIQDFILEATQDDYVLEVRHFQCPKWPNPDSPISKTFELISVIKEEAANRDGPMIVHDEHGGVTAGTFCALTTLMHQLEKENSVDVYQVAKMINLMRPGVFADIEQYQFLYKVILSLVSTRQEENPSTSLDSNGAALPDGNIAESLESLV
T1 sequence (P23471 1698-2000 limits assumed): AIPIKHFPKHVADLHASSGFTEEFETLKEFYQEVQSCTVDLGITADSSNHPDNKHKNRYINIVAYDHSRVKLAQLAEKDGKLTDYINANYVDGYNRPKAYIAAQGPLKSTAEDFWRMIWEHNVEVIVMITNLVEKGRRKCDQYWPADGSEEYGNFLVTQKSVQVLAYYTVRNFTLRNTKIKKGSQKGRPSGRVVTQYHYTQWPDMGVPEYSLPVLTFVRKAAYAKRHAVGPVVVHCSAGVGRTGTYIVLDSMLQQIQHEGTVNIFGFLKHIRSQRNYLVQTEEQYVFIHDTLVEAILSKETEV

| IC50 hPTPRZ1 (D1) (hPTPRZ1 (D1)) | inhibitory effects on PTPRZ activity ([3]; Supplementary Fig. S2) | IC50 hPTPRZ1 (D1+D2) ([3]; whole intracellular region, DiFMUP, 60-min preincubation) | Structure (SMILES) | cell permeability [1] | change in sensitivity on V-to-F substitution in PTPRZ and PTPRG [2] | median day for the tumor size to reach 3,000 mm^3 (C6 xenograft) [days] |
| --- | --- | --- | --- | --- | --- | --- |
| – | – | – | O=S(=O)([O-])c1ccc2c(N=Nc3ccc(S(=O)(=O)[O-])c4ccccc34)c(O)c(S(=O)(=O)[O-])cc2c1.[Na+].[Na+].[Na+] [SCB4380] | cell impermeable | ~ 5% | – |
| ns | no significant inhibitory effects | ns | Cn1nnc2c(C(N)=O)ncn2c1=O [temozolomide, reference compound] | – | – | 25 |
| – | – | – | [O]=[V]([O-])([O-])[O-] [vanadate] | – | ~ 5% | – |
